Experimental data from PMC11904221 (EMBO Molecular Medicine, 2025).
Where two headings read alike, the source gives them in different places. Where a SMILES comes first, the peptide text is derived from it.

Legend:
in vivo = settings: BALB/c, mouse, ip
Description: Pharmacological profile of APLN-DM peptide
Maximal Tolerated Dose (MTD) study of APLN -DM in mice
Six groups comprising six Balb/C mice per group (3 males and 3 females) were assigned to the study. In each gender, one control group (1 Male (M)/1 female (F)) received the reference solution (vehicle) and 5 […]
mg/kg (4M/4F), 2000 mg/kg (5M/5F) and 1500 mg/kg (6M/6F). APLN-DM peptide was administrated via intra-peritoneal (IP) single injection at day 1 followed by observation during 14 days. During the study, mortality, morbidity, general clinical signs and bod y weight were recorded. In the end of the study pathology and organ necropsy examination were performed. Thereby, APLN-DM peptide and vehicle were administered to mice according to Table-1 and their effects were analyzed according to Table-2.
Each test item dose was administrated to 3 female and 3 male mice. The administration was performed IP at a dose volume of 10 ml/kg. Dosing was performed according to Figure-1 and each increase in dose pending on the outcome of the previous dose (results of clinical signs). The lag time between the increasing doses was approximately 48h.
No. (n=) Mouse# Treatment Dose Level administration administratio […]
Table-1. Study design -1. […], […]
Study Day* Procedure Body Weight Clinical Mortality & Organ
Sign Morbidity observation
2-14 - Twice weekly Once -
15 Termination √ √ Gross pathology
Figure 1 - Decisional tree for successive dosing for MTD determination […]
At study termination, body weight (Figure 2 and Figure 3) and gross pathology abnormalities were analyzed in all animals. Main pathological finding were blood clots in intestine and chest cavity. Treatment-related clinical adverse side effects (purple tail, lethargy, decreased motor activity) were observed also in groups treated either with 200, 500, 1000 and 1500 mg/kg. The tail recovered a normal color after 1 hour in all dose groups. […]
abnormalities were detected in all male and female animals from these groups at the scheduled termination […]

[1] = Time-dependent stability in water and in plasma on storage, LC-MS; assay type: physicochemical; settings: read-out: % of area at T=0
Description: The standard deviations were below the acceptable values (<15%) showing that the accuracy is correct and compliant with standard quantification protocols. […]
the linearity of the method. […]
for concentrations below 0.5 µM.
The second step of the study consisted to analyse the stability of the peptide in order to evaluate the feasibility of the quantification of APLN-DM in the samples obtained in vivo.
Quantification in the plasma after protein precipitation
Before the injection for LC-MS analysis, the plasmas had to be processed for elimination of major proteins, which can disturb the analysis. Proteins were precipitated by an organic solvent. […]
The second method was adapted from the protocol described by O. Chertov et al. (Proteomics 2004, 4, 1195- […]
1203). […] 7 µl of this solution were […]
added to 70 µl plasma or 70 µl water (control).
10 µl of each sample were mixed to 20 µl water, vortexed, mixed to 45 µl d’acetonitrile + 0.1% trifluoroacetic acid, sonicated, vortexed, centrifuged for 15 minutes. The supernatant was evaporated and the pellet was re-suspended in 30 µl water. The 2 samples (peptide in plasma or in water) were injected in LC-MS according to the conditions previously established.
With this method, the recovery of APLN-DM in the plasma after protein precipitation was sufficient.
The coefficient of variation was acceptable. This method was used for the stability study in the plasma.
7 µl were added to 3 samples […]
of 70 µl plasma or 70 µl water.
Six solutions were obtained:
-W RT : solution in water stored at room temperature
-W 4°C : solution in water stored at 4°C
-W -18°C : solution in water stored at -18°C
-P RT : solution in plasma stored at room temperature
-P 4°C : solution in plasma stored at 4°C
-P -18°C : solution in plasma stored at -18°C. […]
processed for protein extraction (according to the method previously described), and then injected in […]
LC-MS for APLN-DM quantification. For […]
each sample, % were calculated according to the area obtained at T=0 which correspo nd to 100%.

## CSCC[C@H](NC(=O)[C@@H]1CCCN1C(=O)CNC(=O)[C@H](CCCCN)NC(=O)[C@H](Cc1c[nH]cn1)NC(=O)[C@H](CO)NC(=O)[C@H](CC(C)C)NC(=O)[C@H](CCCNC(=N)N)NC(=O)[C@@H]1CCCN1C(=O)[C@H](CCCNC(=N)N)NC(=O)[C@H](CCC(N)=O)NC(=O)[C@H](CO)NC(=O)[C@H](CO)NC(=O)[C@H](Cc1ccccc1)NC(=O)[C@H](CCCCN)NC(=O)[C@H](CO)NC(=O)[C@H](CO)NC(=O)CNC(=O)CNC(=O)[C@H](CCC(N)=O)NC(=O)[C@H](Cc1c[nH]c2ccccc12)NC(=O)[C@@H]1CCCN1C(=O)CNC(=O)[C@@H]1CCCN1C(=O)CNC(=O)[C@H](CC(N)=O)NC(=O)[C@H](CCCNC(=N)N)NC(=O)[C@H](CO)NC(=O)CNC(=O)[C@H](CCCNC(=N)N)NC(=O)[C@@H]1CCCN1C(=O)[C@H](CCC(N)=O)NC(=O)[C@@H](NC(=O)[C@@H](N)CC(C)C)C(C)C)C(=O)N1CCC[C@H]1C(=O)N[C@@H](Cc1ccccc1)C(=O)O [APLN-DM] (H-LVQPRGSRNGPGPWQGGSSKFSSQRPRLSHKGPMPF-OH)
In vivo; female
  MTD at 336 h: 1000 mg/kg
In vivo; male
  MTD at 336 h: 1500 mg/kg
[1]; P 4°C
  remaining at 2 h: 51%
  remaining at 168 h: 6%
[1]; P 4°C: in plasma, 4°C
  remaining at 1 h: 66%
[1]; P -18°C
  remaining at 2 h: 66%
  remaining at 5 h: 114%
  remaining at 24 h: 86%
  remaining at 48 h: 97%
  remaining at 72 h: 89%
  remaining at 168 h: 12%
[1]; P -18°C: in plasma, -18°C
  remaining at 1 h: 75%
[1]; P RT
  remaining at 2 h: 17%
  remaining at 5 h: 13%
  remaining at 24 h: 8%
  remaining at 48 h: 14%
  remaining at 72 h: 7%
  remaining at 168 h: 22%
[1]; P RT: in plasma, room temperature
  remaining at 1 h: 21%
In vitro
  % Protein bound, 1st: 56.8%
  % Protein bound, 2nd: 52.2%
  % Recovery, 1st: 123%
  % Recovery, 2nd: 125%
  % Recovery, Mean: 124%
In vitro; human, plasma
  fraction unbound at 4 h, 1e-05 M: 0.46
